Laboratory results from article PMC3559828 (PLoS ONE, 2013).
pIC50: −log10 of the molar value. Bridge positions count the residues as written; N and C are the ends. Peptide text beside a SMILES is read from it.

Columns and labels:
[1] = target: T1, Mouse α1β1γδ nAChR (Mus musculus, UniProt P02716+P04756+P09690+P20782); test: cell-based
T1 construct: expressed in transfected cells; host or cells: Xenopus oocytes injected with cRNA

[2] = tested on: GABAB receptors; settings: cited from earlier work
[3] = tested on: α9α10 nAChR; settings: cited from earlier work

T1 sequence (P04756 21-457 limits assumed): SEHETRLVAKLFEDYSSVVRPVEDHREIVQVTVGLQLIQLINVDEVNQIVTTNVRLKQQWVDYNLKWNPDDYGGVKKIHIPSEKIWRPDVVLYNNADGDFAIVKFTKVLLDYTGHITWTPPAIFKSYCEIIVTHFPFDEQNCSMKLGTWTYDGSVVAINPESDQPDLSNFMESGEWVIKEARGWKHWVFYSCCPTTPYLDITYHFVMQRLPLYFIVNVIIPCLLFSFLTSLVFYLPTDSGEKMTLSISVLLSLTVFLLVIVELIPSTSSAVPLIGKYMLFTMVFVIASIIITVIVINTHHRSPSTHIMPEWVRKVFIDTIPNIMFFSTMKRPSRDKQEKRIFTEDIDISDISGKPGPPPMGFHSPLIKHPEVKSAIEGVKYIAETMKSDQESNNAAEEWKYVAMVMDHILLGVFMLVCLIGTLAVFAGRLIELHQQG
T1 sequence (P09690 24-501 partner limits assumed): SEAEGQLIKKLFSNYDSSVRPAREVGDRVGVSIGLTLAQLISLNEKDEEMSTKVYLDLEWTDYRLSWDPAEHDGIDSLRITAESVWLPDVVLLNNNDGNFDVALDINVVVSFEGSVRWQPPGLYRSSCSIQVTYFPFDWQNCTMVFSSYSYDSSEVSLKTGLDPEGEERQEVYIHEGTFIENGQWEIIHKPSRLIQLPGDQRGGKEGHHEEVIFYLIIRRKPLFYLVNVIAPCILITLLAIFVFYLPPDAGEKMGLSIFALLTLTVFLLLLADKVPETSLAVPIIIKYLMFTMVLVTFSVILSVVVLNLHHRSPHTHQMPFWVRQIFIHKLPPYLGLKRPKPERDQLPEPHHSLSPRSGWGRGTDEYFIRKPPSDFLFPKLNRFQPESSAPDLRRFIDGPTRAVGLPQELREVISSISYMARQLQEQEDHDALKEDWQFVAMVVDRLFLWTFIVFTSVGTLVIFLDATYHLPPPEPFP
T1 sequence (P02716 25-520 limits assumed): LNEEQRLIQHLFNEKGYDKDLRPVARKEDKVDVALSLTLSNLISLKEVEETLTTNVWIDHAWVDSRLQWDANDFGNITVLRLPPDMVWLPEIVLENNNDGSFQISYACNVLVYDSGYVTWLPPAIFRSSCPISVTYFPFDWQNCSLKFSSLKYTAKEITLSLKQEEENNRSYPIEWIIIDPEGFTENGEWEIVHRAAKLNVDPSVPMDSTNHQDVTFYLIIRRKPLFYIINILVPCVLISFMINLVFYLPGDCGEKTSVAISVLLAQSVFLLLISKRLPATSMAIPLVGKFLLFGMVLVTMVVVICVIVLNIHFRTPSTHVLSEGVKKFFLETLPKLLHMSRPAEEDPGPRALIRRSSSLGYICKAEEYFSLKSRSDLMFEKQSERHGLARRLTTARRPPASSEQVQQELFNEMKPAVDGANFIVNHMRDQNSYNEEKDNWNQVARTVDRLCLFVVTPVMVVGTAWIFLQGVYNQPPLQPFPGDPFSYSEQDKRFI
T1 sequence (P20782 21-493 limits assumed): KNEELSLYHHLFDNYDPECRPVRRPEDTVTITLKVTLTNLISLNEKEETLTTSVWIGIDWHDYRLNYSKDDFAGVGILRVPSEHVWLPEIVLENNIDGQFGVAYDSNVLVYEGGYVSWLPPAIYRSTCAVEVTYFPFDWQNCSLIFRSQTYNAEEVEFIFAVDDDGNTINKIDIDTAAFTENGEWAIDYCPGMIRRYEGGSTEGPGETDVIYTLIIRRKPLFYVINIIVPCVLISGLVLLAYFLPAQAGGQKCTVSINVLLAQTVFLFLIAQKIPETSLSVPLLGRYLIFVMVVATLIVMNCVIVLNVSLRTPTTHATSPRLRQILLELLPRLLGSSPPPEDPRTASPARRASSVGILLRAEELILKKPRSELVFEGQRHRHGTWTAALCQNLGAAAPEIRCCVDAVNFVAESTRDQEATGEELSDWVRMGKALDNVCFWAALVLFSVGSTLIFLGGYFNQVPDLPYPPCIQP

Compound	pIC50 [1]	activity at GABAB receptors [2]	pIC50 [3]
CC(C)C[C@@H]1NC(=O)[C@@H](NC(=O)[C@H](CCCNC(=N)N)NC(=O)[C@@H](N)C(C)C)CSSC[C@@H](C(=O)N[C@H]2CSSC[C@@H](C(=O)N[C@H](C(=O)N[C@@H](Cc3ccc(O)cc3)C(=O)N[C@@H](Cc3ccc(O)cc3)C(=O)N[C@H](C(=O)N[C@@H](CCC(N)=O)C(=O)N[C@@H](CO)C(=O)N[C@@H](CCCNC(=N)N)C(=O)N[C@@H](CCC(=O)O)C(=O)O)[C@@H](C)O)C(C)C)NC(=O)[C@H](CCCNC(=N)N)NC(=O)[C@H](CO)NC(=O)[C@H](Cc3c[nH]cn3)NC(=O)[C@H](CCCNC(=N)N)NC(=O)[C@H](C)NC(=O)[C@H](Cc3ccccc3)NC(=O)[C@H](CO)NC(=O)[C@@H]3CCCN3C(=O)CNC(=O)[C@H](CCCCN)NC(=O)[C@H](CCC(N)=O)NC2=O)NC(=O)[C@@H]2CCCN2C(=O)[C@@H]2CCCN2C(=O)[C@H](CCCNC(=N)N)NC(=O)[C@H](Cc2ccccc2)NC(=O)[C@H](CC(C)C)NC(=O)[C@H](CCCCN)NC(=O)[C@H](CC(N)=O)NC(=O)[C@@H]2CCCN2C(=O)[C@H](CCC(N)=O)NC(=O)[C@H](C)NC(=O)CNC(=O)[C@H](CO)NC(=O)[C@H](CCCCN)NC(=O)[C@H](CCC(=O)O)NC1=O [αB-VxXXIVA [1], [2]] (H-VRCLEKSGAQPNKLFRPPCCQKGPSFARHSRCVYYTQSRE-OH; disulfide 3-19, 20-32)	5.18	–	–
α-conotoxin RgIA	–	activate GABAB receptors	7.72
